Assays:
[1] = system: recurrent malignant gliomas; experiment: Clinical trial of Avastin (in combination with CPT-11) in patients with recurrent malignant gliomas; type: in vivo, human
Source text: The obvious clinical efficacy of avastin will most certainly change the standard of care for malignant glioma patients. […] We will address the following questions: 1) does increased vascularity predispose towards clinical response to avastin (this will be done in collaboration with Dr. Luisa Iruela-Arispe, a noted expert in angiogenesis at UCLA); 2) are the downstream signaling pathways regulated by VEGF reactivated during response and by what mechanism. Are tumors which are driven by key pathways that promote VEGF expression (i.e. EGFR/PI3K signaling) more sensitive to avastin? In addition to testing lese specific hypotheses, we will apply global screening strategies. These include array CGH to detect chromosomal regions of interest associated with sensitivity and resistance (will be done at MSKCC by Dr. Mellinghoff) and integrated with global gene expression data (done both at UCLA and at MSKCC), in addition, through our NanoSystems Biology Cancer Center, we have begun collaboration with Dr. Lee Hood to use surface Plasmon resonance to facilitate the quantitative detection of thousands of proteins in a serum samples. This will enable us to identify protein signatures associated with sensitivity and acquired resistance.

U87-PTEN cells = experiment: 2-NBDG glucose analog uptake on chip; type: cell-based, human; conditions: 20 min incubation in HBSS
Method: (§1) To monitor glucose uptake in U87 cells, a fluorescent deoxyglucose (2-[N-(7-nitrobenz-2-oxa-1,3-diaxol-4-yl)amino]-2-deoxyglucose; 2-NBDG)^72,73 was used and monitored the 2-NBDG uptake by U87 and U87-PTEN cells (FIG. 6). After cells were loaded into a chip, culture medium was washed with Hanks' balanced salt solution (HBSS) with CaCl2. Then, 2-NBDG in HBSS was loaded into a cell chamber and incubated for 20 min in an incubator.

U87 cells = experiment: 2-NBDG glucose analog uptake on chip; type: cell-based, human; conditions: 20 min incubation in HBSS
Method: as §1

mTOR = mTOR (Homo sapiens, UniProt P42345+P62942); conditions: glioblastoma patients

Avastin: VEGF inhibitor, given in combination with CPT-11
median time to tumor progression ([1]; Avastin with CPT-11, 95% CI=122-272, comparator median 56 days): 209 days | median overall survival ([1]; Avastin with CPT-11, 95% CI=251-424, comparator median 184 days): 340 days

O=[N+]([O-])c1ccc(N[C@H]2C(O)O[C@H](CO)[C@@H](O)[C@@H]2O)c2nonc12 (stereo partly drawn) [2-NBDG, 2-[N-(7-nitrobenz-2-oxa-1,3-diaxol-4-yl)amino]-2-deoxyglucose]
fluorescent signal of 2-NBDG uptake (U87-PTEN cells): could not be detected | fluorescent signal of 2-NBDG uptake (U87 cells): signals of 2-NBDG were observed

CO[C@H]1C[C@@H]2CC[C@@H](C)[C@@](O)(O2)C(=O)C(=O)N2CCCC[C@H]2C(=O)O[C@H]([C@H](C)C[C@@H]2CC[C@@H](O)[C@H](OC)C2)CC(=O)[C@H](C)/C=C(\C)[C@@H](O)[C@@H](OC)C(=O)[C@H](C)C[C@H](C)/C=C/C=C/C=C/1C [rapamycin]
rapamycin level in tumor tissue in vivo (mTOR): present in potentially therapeutic levels | extent of mTOR pathway inhibition (mTOR; in vivo, variable between patients): 10%-80%
